Read-outs that look alike come from different tables or passages of the source.
Assays:
Type in all cases: in vivo, mice
CaLu-6 tumors = system: CaLu-6 tumors
Experimental: Female athymic nude mice (Harlan Sprague Dawley, Madison, Wis.) were utilized for all experiments. Animals were housed in ventilated rack caging with food and water ad libitum. The mice were acclimated for at least 5 days prior to tumor implantation.
The tumor model used in this study was CaLu-6 cell line which is a human lung cancer cell line obtained from the ATCC (Manassas, Va.). CaLu-6 cells were grown in Eagle's Minimum Essential Medium (MEM), 10% FBS and 2 mM L-glutamine. Cells from in vitro passage 12 were implanted SC into study mice using a 1 ml syringe with a 13G trocar: 5×10^6 cells/mouse in 0.2 ml 50% Matrigel/50% MEM medium of CaLu-6 without serum or antibiotics. Bacterial culture was taken on cells used to implant the study.
When tumors reached an appropriated volume, within the size range of 99±17 mm^3 (mean±SD), mice were randomized into the treatment and control groups based on tumor weight by using LabCat® In Life module V 8.0 SP1 tumor tracking and measurement software. Treatments were initiated on DPI 9.
Tumor size measurements were recorded 2-3 times/week from the treatment initiation until the termination of the study.
(§1) Mean, standard deviation and standard error of the mean were determined for tumor volume for all animal groups at all assessments. Student's t test was performed on tumor volumes at each measurement day, including at the end of the study, to determine whether there were any statistically significant differences between combination treatment groups and single monotherapy treatment groups.

BxPC-3 tumors = details: mg/kg/day: PM00104 0.90 IV
Experimental: Female CB17.SCID mice (Charles River Lab.) were utilized for all experiments. Animals were housed in ventilated rack caging with food and water ad libitum. The mice were acclimated for at least 5 days prior to tumor implantation with a tumor cell suspension.
The tumor model used in these studies was BxPC-3 cell line, which was obtained from the ATCC (Manassas, Va.).
Treatments were initiated on DPI 9.
(§2) Tumor size measurements were recorded twice weekly from the treatment initiation until the termination of the study.
as §1

MRI-H-254 tumors = system: MRI-H-254 tumors
Experimental: Female athymic nude mice (Harlan Sprague Dawley, Madison, Wis.) were utilized for all experiments. Animals were housed in ventilated rack caging with food and water ad libitum. The mice were acclimated for at least 5 days prior to tumor implantation with tumor fragments. The Vehicle Control group contained 11 mice, groups 2-6 contained 8 mice/group, and the rest of groups contained 9 mice/group.
This cell line was grown and implanted to the animals as described in Example 11.
Tumor measurements were determined as disclosed in Example 4. […] Treatments were initiated on DPI 17.
PM00104 was provided in the form of vials of lyophilized PM00104 powder which was reconstituted with water for injection.
as §2, §1
The definition and criteria for the evaluation of potentiation and the degree of additivity for the combination therapy were the same as those disclose in Example 4.

[1] = Gemcitabine 90 mg/kg/day IP, alone or with PM00104 0.9 mg/kg/day IV
[2] = PM00104 0.9 mg/kg/day IV and/or Gemcitabine 180 mg/kg/day IP
[3] = PM00104 0.90 IV, doxorubicin 6 IP, paclitaxel 12.5 IP mg/kg/day (G2, G5, G6, G7, G8)

## Nc1ccn([C@@H]2O[C@H](CO)[C@@H](O)C2(F)F)c(=O)n1 [Gemcitabine, gemcitabine]
CaLu-6 tumors; [1]
  % T/C on day 9: 100.6%
  % T/C on day 12: 37.8%
  % T/C on day 15: 78.8%
  % T/C on day 19: 64.8%
  % T/C on day 22: 72.0%
  % T/C on day 26: 67.1%
  % T/C on day 29: 61.3%
  % T/C on day 34: 72.8%
  % T/C on day 40: 76.1%
CaLu-6 tumors; [2]
  % T/C on day 9: 99.6%
  % T/C on day 12: 39.0%
  % T/C on day 15: 61.0%
  % T/C on day 19: 62.5%
  % T/C on day 22: 48.7%
  % T/C on day 26: 53.0%
  % T/C on day 29: 46.8%
  % T/C on day 34: 52.8%
  % T/C on day 40: 60.4%

## C#Cc1cccc(Nc2ncnc3cc(OCCOC)c(OCCOC)cc23)c1 [erlotinib]
BxPC-3 tumors; day 9, erlotinib 15 PO
  % Inhibition: 0.5%
  % T/C on day: 99.5%
BxPC-3 tumors; day 9, erlotinib 30 PO
  % Inhibition: −4.2%
  % T/C on day: 104.2%
BxPC-3 tumors; day 9, erlotinib 50 PO
  % Inhibition: −2.5%
  % T/C on day: 102.5%
BxPC-3 tumors; day 12, erlotinib 15 PO
  % Inhibition: 24.1%
  % T/C on day: 75.9%
BxPC-3 tumors; day 12, erlotinib 30 PO
  % Inhibition: 15.1%
  % T/C on day: 84.9%
BxPC-3 tumors; day 12, erlotinib 50 PO
  % Inhibition: 15.1%
  % T/C on day: 84.9%
BxPC-3 tumors; day 15, erlotinib 15 PO
  % Inhibition: 7.8%
  % T/C on day: 92.2%
BxPC-3 tumors; day 15, erlotinib 30 PO
  % Inhibition: −5.8%
  % T/C on day: 105.8%
BxPC-3 tumors; day 15, erlotinib 50 PO
  % Inhibition: −14.2%
  % T/C on day: 114.2%
BxPC-3 tumors; day 19, erlotinib 15 PO
  % Inhibition: 21.0%
  % T/C on day: 79.0%
BxPC-3 tumors; day 19, erlotinib 30 PO
  % Inhibition: 6.5%
  % T/C on day: 93.5%
BxPC-3 tumors; day 19, erlotinib 50 PO
  % Inhibition: −2.6%
  % T/C on day: 102.6%
BxPC-3 tumors; day 21, erlotinib 15 PO
  % Inhibition: 33.8%
  % T/C on day: 66.2%
BxPC-3 tumors; day 21, erlotinib 30 PO
  % Inhibition: 16.3%
  % T/C on day: 83.7%
BxPC-3 tumors; day 21, erlotinib 50 PO
  % Inhibition: 15.5%
  % T/C on day: 84.5%
BxPC-3 tumors; day 26, erlotinib 15 PO
  % Inhibition: 7.5%
  % T/C on day: 92.5%
BxPC-3 tumors; day 26, erlotinib 30 PO
  % Inhibition: −14.2%
  % T/C on day: 114.2%
BxPC-3 tumors; day 26, erlotinib 50 PO
  % Inhibition: 9.0%
  % T/C on day: 91.0%
BxPC-3 tumors; day 29, erlotinib 15 PO
  % Inhibition: 16.2%
  % T/C on day: 83.8%
BxPC-3 tumors; day 29, erlotinib 30 PO
  % Inhibition: 15.2%
  % T/C on day: 84.8%
BxPC-3 tumors; day 29, erlotinib 50 PO
  % Inhibition: 40.7%
  % T/C on day: 59.3%
BxPC-3 tumors; day 33, erlotinib 15 PO
  % Inhibition: 7.9%
  % T/C on day: 92.1%
BxPC-3 tumors; day 33, erlotinib 30 PO
  % Inhibition: 13.0%
  % T/C on day: 87.0%
BxPC-3 tumors; day 33, erlotinib 50 PO
  % Inhibition: 12.1%
  % T/C on day: 87.9%
BxPC-3 tumors; day 40, erlotinib 15 PO
  % Inhibition: 18.8%
  % T/C on day: 81.2%
BxPC-3 tumors; day 40, erlotinib 30 PO
  % Inhibition: 14.5%
  % T/C on day: 85.5%
BxPC-3 tumors; day 40, erlotinib 50 PO
  % Inhibition: 15.4%
  % T/C on day: 84.6%

## CC(=O)O[C@H]1C(=O)[C@@]2(C)[C@H]([C@H](OC(=O)c3ccccc3)[C@]3(O)C[C@H](OC(=O)[C@H](O)[C@@H](NC(=O)c4ccccc4)c4ccccc4)C(C)=C1C3(C)C)[C@]1(OC(C)=O)CO[C@@H]1C[C@@H]2O [paclitaxel]
MRI-H-254 tumors; [3]
  % T/C on day 17: 99.5%
  % T/C on day 20: 86.2%
  % T/C on day 24: 71.9%
  % T/C on day 27: 77.2%
  % T/C on day 32: 67.9%
  % T/C on day 35: 52.3%
  % T/C on day 39: 51.7%
  % T/C on day 47: 69.0%
MRI-H-254 tumors; day 14, PM00104 0.23, doxorubicin 6, paclitaxel 12.5 mg/kg/day
  % Inhibition: 0.5%
MRI-H-254 tumors; day 14, PM00104 0.45, doxorubicin 6, paclitaxel 12.5 mg/kg/day
  % Inhibition: 0.5%
MRI-H-254 tumors; day 14, PM00104 0.90, paclitaxel 12.5 mg/kg/day
  % Inhibition: 0.5%
MRI-H-254 tumors; day 20, PM00104 0.23, doxorubicin 6, paclitaxel 12.5 mg/kg/day
  % Inhibition: 13.8%
MRI-H-254 tumors; day 20, PM00104 0.45, doxorubicin 6, paclitaxel 12.5 mg/kg/day
  % Inhibition: 13.8%
MRI-H-254 tumors; day 20, PM00104 0.90, paclitaxel 12.5 mg/kg/day
  % Inhibition: 13.8%
MRI-H-254 tumors; day 24, PM00104 0.23, doxorubicin 6, paclitaxel 12.5 mg/kg/day
  % Inhibition: 28.1%
MRI-H-254 tumors; day 24, PM00104 0.45, doxorubicin 6, paclitaxel 12.5 mg/kg/day
  % Inhibition: 28.1%
MRI-H-254 tumors; day 24, PM00104 0.90, paclitaxel 12.5 mg/kg/day
  % Inhibition: 28.1%
MRI-H-254 tumors; day 27, PM00104 0.23, doxorubicin 6, paclitaxel 12.5 mg/kg/day
  % Inhibition: 22.8%
MRI-H-254 tumors; day 27, PM00104 0.45, doxorubicin 6, paclitaxel 12.5 mg/kg/day
  % Inhibition: 22.8%
MRI-H-254 tumors; day 27, PM00104 0.90, paclitaxel 12.5 mg/kg/day
  % Inhibition: 22.8%
MRI-H-254 tumors; day 32, PM00104 0.23, doxorubicin 6, paclitaxel 12.5 mg/kg/day
  % Inhibition: 32.1%
MRI-H-254 tumors; day 32, PM00104 0.45, doxorubicin 6, paclitaxel 12.5 mg/kg/day
  % Inhibition: 32.1%
MRI-H-254 tumors; day 32, PM00104 0.90, paclitaxel 12.5 mg/kg/day
  % Inhibition: 32.1%
MRI-H-254 tumors; day 35, PM00104 0.23, doxorubicin 6, paclitaxel 12.5 mg/kg/day
  % Inhibition: 47.7%
MRI-H-254 tumors; day 35, PM00104 0.45, doxorubicin 6, paclitaxel 12.5 mg/kg/day
  % Inhibition: 47.7%
MRI-H-254 tumors; day 35, PM00104 0.90, paclitaxel 12.5 mg/kg/day
  % Inhibition: 47.7%
MRI-H-254 tumors; day 39, PM00104 0.23, doxorubicin 6, paclitaxel 12.5 mg/kg/day
  % Inhibition: 48.3%
MRI-H-254 tumors; day 39, PM00104 0.45, doxorubicin 6, paclitaxel 12.5 mg/kg/day
  % Inhibition: 48.3%
MRI-H-254 tumors; day 39, PM00104 0.90, paclitaxel 12.5 mg/kg/day
  % Inhibition: 48.3%
MRI-H-254 tumors; day 47, PM00104 0.23, doxorubicin 6, paclitaxel 12.5 mg/kg/day
  % Inhibition: 31.0%
MRI-H-254 tumors; day 47, PM00104 0.45, doxorubicin 6, paclitaxel 12.5 mg/kg/day
  % Inhibition: 31.0%
MRI-H-254 tumors; day 47, PM00104 0.90, paclitaxel 12.5 mg/kg/day
  % Inhibition: 31.0%

From US20110070232A1, “Combination Therapy with an Antitumor Alkaloid” (Pharma Mar, S.A., priority 2008, published 2011)
